Experimental data: ChEMBL document CHEMBL4371005, “Overview of the Development of DprE1 Inhibitors for Combating the Menace of Tuberculosis” (J Med Chem, 2018)
Values after ≈ are worked out from the molar mass of the structure shown.

What was measured:
[1] = system: Mycobacterium tuberculosis; assay: Antimycobacterial activity against Mycobacterium tuberculosis H37Rv harboring rv3405c mutant TRC4 after overnight incubation by REMA method; assay type: functional
[2] = system: Mycobacterium tuberculosis; assay: Antimycobacterial activity against Mycobacterium tuberculosis H37Rv harboring deltarv3406 dprE1 L368P after overnight incubation by REMA method; assay type: functional

Question: For `O=C(O)c1nc2ccc(C(F)(F)F)cc2nc1NCc1ccc(F)cc1`, which MIC99 [1] is on record?
Answer: 25 µM (≈ 9.13 µg/mL)

Question: What about the MIC99 [2] of the same compound?
Answer: 25 µM (≈ 9.13 µg/mL)

Question: With `COc1ccc(CNc2nc3cc(C(F)(F)F)ccc3nc2C(=O)O)cc1` as the compound, how does the MIC99 [1] read?
Answer: 6.3 µM (≈ 2.38 µg/mL)

Question: What about the MIC99 [2] of the same compound?
Answer: 12.5 µM (≈ 4.72 µg/mL)

Question: What does the source list for `CCOC(=O)c1nc2ccc(C(F)(F)F)cc2nc1NCc1ccc(OC)cc1`?
Answer: MIC99 [1]: 6.3 µM (≈ 2.55 µg/mL); MIC99 [2]: 12.5 to 25 µM

Question: What does the source list for `COc1ccc(CNc2nc3cc(C(F)(F)F)ccc3nc2C(=O)O)cc1F`?
Answer: MIC99 [1]: 12.5 µM (≈ 4.94 µg/mL); MIC99 [2]: 25 µM (≈ 9.88 µg/mL)

Question: `CCOc1ccc(CNc2nc3cc(C(F)(F)F)ccc3nc2C(=O)O)cc1` was tested. Which MIC99 [1] did it give?
Answer: 6.3 µM (≈ 2.47 µg/mL)

Question: What about the MIC99 [2] of the same compound?
Answer: 12.5 µM (≈ 4.89 µg/mL)

Question: For `N#Cc1ccc(CNc2nc3cc(C(F)(F)F)ccc3nc2C(=O)O)cc1`, which MIC99 [1] is on record?
Answer: 50 µM (≈ 18.6 µg/mL)

Question: And the MIC99 [2]?
Answer: 100 µM (≈ 37.2 µg/mL)

Question: What does the source list for `O=C(O)c1nc2ccc(C(F)(F)F)cc2nc1NCc1ccc(C(F)(F)F)cc1`?
Answer: MIC99 [1]: 12.5 µM (≈ 5.19 µg/mL); MIC99 [2]: 25 µM (≈ 10.4 µg/mL)

Question: `O=C(O)c1nc2ccc(C(F)(F)F)cc2nc1NCc1ccc(Cl)cc1` was tested. Which MIC99 [1] did it give?
Answer: 12.5 µM (≈ 4.77 µg/mL)

Question: And the MIC99 [2]?
Answer: 25 µM (≈ 9.54 µg/mL)
